US20150344540A1, “NOVEL GLP-1 RECEPTOR AGONISTS WITH CHOLESTEROL EFFLUX ACTIVITY” (NOVO NORDISK A/S, priority 2012, published 2015)
Like-named read-outs stand apart in the source and are kept apart here. Where a SMILES comes first, the peptide text is derived from it. [ ]: non-standard residue; d: D form. Aib = CC(C)(N)C(=O)O

What was measured:
[1] = biological target: human GLP-1 receptor (Homo sapiens, UniProt P43220); assay: Functional GLP-1 receptor assay, in vitro potency (CRE luciferase; whole cells); type: cell-based; conditions: BHK cells expressing human GLP-1 receptor
[2] = system: Mouse monocyte/macrophage cell line, RAW 264.7; assay: Cholesterol efflux assay (3H-cholesterol, macrophage cell line); type: cell-based; conditions: RAW 264.7, 4 hrs incubation, 0.1% human serum albumin; for 4 h Cholesterol Efflux Emax: ABCA1-mediated efflux
[3] = 0% HSA, read-out: GLP1R CRE luc 0% HSA EC50 Mean Value
[4] = GLP1R CRE luc 1% HSA EC50 Mean Value, 1% HSA

human GLP-1 receptor, sequence (P43220 24-463): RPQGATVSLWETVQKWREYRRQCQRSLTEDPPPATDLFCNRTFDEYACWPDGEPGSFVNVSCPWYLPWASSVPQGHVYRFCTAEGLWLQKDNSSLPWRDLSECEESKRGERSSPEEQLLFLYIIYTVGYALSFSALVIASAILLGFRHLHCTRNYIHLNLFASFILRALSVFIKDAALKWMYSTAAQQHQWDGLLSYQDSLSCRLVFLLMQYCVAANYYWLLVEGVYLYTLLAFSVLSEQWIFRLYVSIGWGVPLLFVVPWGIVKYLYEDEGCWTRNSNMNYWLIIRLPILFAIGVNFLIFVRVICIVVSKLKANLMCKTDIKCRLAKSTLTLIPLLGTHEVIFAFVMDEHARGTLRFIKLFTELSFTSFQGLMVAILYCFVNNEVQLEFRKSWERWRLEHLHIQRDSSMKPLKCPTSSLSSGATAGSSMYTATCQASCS

Q: What does the source list for CC[C@H](C)[C@H](NC(=O)[C@H](Cc1ccccc1)NC(=O)[C@H](CCC(=O)O)NC(=O)[C@H](CCCNC(=N)N)NC(=O)[C@@H](NC(=O)[C@H](C)NC(=O)[C@H](CCC(=O)O)NC(=O)CNC(=O)[C@H](CCC(=O)O)NC(=O)[C@H](CC(C)C)NC(=O)[C@H](Cc1ccc(O)cc1)NC(=O)[C@H](CO)NC(=O)[C@H](CO)NC(=O)[C@@H](NC(=O)[C@H](CC(=O)O)NC(=O)[C@H](CO)NC(=O)[C@@H](NC(=O)[C@H](Cc1ccccc1)NC(=O)[C@@H](NC(=O)CNC(=O)[C@H](CCC(=O)O)NC(=O)C(C)(C)NC(=O)[C@@H](N)Cc1c[nH]cn1)[C@@H](C)O)[C@@H](C)O)C(C)C)C(C)C)C(=O)N[C@@H](C)C(=O)N[C@@H](Cc1c[nH]c2ccccc12)C(=O)N[C@@H](CC(C)C)C(=O)N[C@H](C(=O)N[C@@H](CCC(=O)O)C(=O)N[C@@H](CCCNC(=N)N)C(=O)NC(C)(C)C(=O)N[C@@H](CCCNC(=N)N)C(=O)N[C@@H](CCC(=O)O)C(=O)N[C@@H](Cc1ccccc1)C(=O)N[C@@H](CC(C)C)C(N)=O)C(C)C [Compound 43] (H-H[Aib]EGTFTSDVSSYLEGEAVREFIAWLVER[Aib]REFL-NH2)?
A: EC50 [1, 3]: 0.086 nM; EC50 [1, 4]: 0.041 nM; 4 h Cholesterol Efflux Emax [2]: 82%

Q: Which results are given for CC[C@H](C)[C@H](NC(=O)[C@H](Cc1ccccc1)NC(=O)[C@H](CCC(=O)O)NC(=O)[C@H](CCCCN)NC(=O)[C@@H](NC(=O)[C@H](C)NC(=O)[C@H](CCC(=O)O)NC(=O)CNC(=O)[C@H](CCC(=O)O)NC(=O)[C@H](CC(C)C)NC(=O)[C@H](Cc1ccc(O)cc1)NC(=O)[C@H](CO)NC(=O)[C@H](CO)NC(=O)[C@@H](NC(=O)[C@H](CC(=O)O)NC(=O)[C@H](CO)NC(=O)[C@@H](NC(=O)[C@H](Cc1ccccc1)NC(=O)[C@@H](NC(=O)CNC(=O)[C@H](CCC(=O)O)NC(=O)C(C)(C)NC(=O)[C@@H](N)Cc1c[nH]cn1)[C@@H](C)O)[C@@H](C)O)C(C)C)C(C)C)C(=O)N[C@@H](C)C(=O)N[C@@H](Cc1c[nH]c2ccccc12)C(=O)N[C@@H](CC(C)C)C(=O)N[C@H](C(=O)N[C@@H](CCC(=O)O)C(=O)N[C@@H](CCCCN)C(=O)N[C@@H](Cc1ccccc1)C(=O)N[C@@H](CCCCN)C(=O)N[C@@H](CCC(=O)O)C(=O)N[C@@H](C)C(=O)N[C@@H](Cc1ccccc1)C(N)=O)C(C)C [Compound 46, [Aib8,Glu23,Val25,Glu34,Lys35,Phe36,Lys37]-GLP-1-(7-37)-peptidyl-Glu-Ala-Phe amide] (H-H[Aib]EGTFTSDVSSYLEGEAVKEFIAWLVEKFKEAF-NH2)?
A: EC50 [1, 3]: 0.372 nM; 4 h Cholesterol Efflux Emax [2]: 98%

Q: CC[C@H](C)[C@H](NC(=O)[C@H](Cc1ccccc1)NC(=O)[C@H](CCC(=O)O)NC(=O)[C@H](CCCCN)NC(=O)[C@@H](NC(=O)[C@H](C)NC(=O)[C@H](CCC(=O)O)NC(=O)CNC(=O)[C@H](CCC(=O)O)NC(=O)[C@H](CC(C)C)NC(=O)[C@H](Cc1ccc(O)cc1)NC(=O)[C@H](CO)NC(=O)[C@H](CO)NC(=O)[C@@H](NC(=O)[C@H](CC(=O)O)NC(=O)[C@H](CO)NC(=O)[C@@H](NC(=O)[C@H](Cc1ccccc1)NC(=O)[C@@H](NC(=O)CNC(=O)[C@H](CCC(=O)O)NC(=O)C(C)(C)NC(=O)[C@@H](N)Cc1c[nH]cn1)[C@@H](C)O)[C@@H](C)O)C(C)C)C(C)C)C(=O)N[C@@H](Cc1c[nH]c2ccccc12)C(=O)N[C@@H](Cc1c[nH]c2ccccc12)C(=O)N[C@@H](CC(C)C)C(=O)N[C@H](C(=O)N[C@@H](CCC(=O)O)C(=O)N[C@@H](CCCCN)C(=O)NC(C)(C)C(=O)N[C@@H](CCCCN)C(=O)N[C@@H](CCC(=O)O)C(=O)N[C@@H](Cc1ccccc1)C(=O)N[C@@H](CC(C)C)C(N)=O)C(C)C [Compound 50, [Aib8,Glu23,Val25,Trp30,Glu34,Lys35,Aib36,Lys37]-GLP-1-(7-37)-peptidyl-Glu-Phe-Leu amide] (H-H[Aib]EGTFTSDVSSYLEGEAVKEFIWWLVEK[Aib]KEFL-NH2) was tested. Which EC50 [1, 3] did it give?
A: Its EC50 is 0.157 nM.

Q: And the “4 h Cholesterol Efflux Emax” value [2]?
A: The value was 87%.

Q: For CC[C@H](C)[C@H](NC(=O)[C@H](Cc1ccccc1)NC(=O)[C@H](CCC(=O)O)NC(=O)[C@H](CCCCN)NC(=O)[C@@H](NC(=O)[C@H](CCCNC(=N)N)NC(=O)[C@H](CCC(=O)O)NC(=O)CNC(=O)[C@H](CCC(=O)O)NC(=O)[C@H](CC(C)C)NC(=O)[C@H](Cc1ccc(O)cc1)NC(=O)[C@H](CO)NC(=O)[C@H](CO)NC(=O)[C@@H](NC(=O)[C@H](CC(=O)O)NC(=O)[C@H](CO)NC(=O)[C@@H](NC(=O)[C@H](Cc1ccccc1)NC(=O)[C@@H](NC(=O)CNC(=O)[C@H](CCC(=O)O)NC(=O)C(C)(C)NC(=O)[C@@H](N)Cc1c[nH]cn1)[C@@H](C)O)[C@@H](C)O)C(C)C)C(C)C)C(=O)N[C@@H](C)C(=O)N[C@@H](Cc1c[nH]c2ccccc12)C(=O)N[C@@H](CC(C)C)C(=O)N[C@H](C(=O)N[C@@H](CCC(=O)O)C(=O)N[C@@H](CCCCN)C(=O)NC(C)(C)C(=O)N[C@@H](CCCCN)C(=O)N[C@@H](CCC(=O)O)C(=O)N[C@@H](Cc1ccccc1)C(=O)N[C@@H](CC(C)C)C(N)=O)C(C)C [Compound 53, [Aib8,Glu23,Arg24,Val25,Glu34,Lys35,Aib36,Lys37]-GLP-1-(7-37)-peptidyl-Glu-Phe-Leu amide] (H-H[Aib]EGTFTSDVSSYLEGERVKEFIAWLVEK[Aib]KEFL-NH2), which EC50 [1, 4] is on record?
A: Its EC50 is 0.273 nM.

Q: And the “4 h Cholesterol Efflux Emax” value [2]?
A: Its value is 109%.

Q: Which results are given for CC[C@H](C)[C@H](NC(=O)[C@H](Cc1ccccc1)NC(=O)[C@H](CCC(=O)O)NC(=O)[C@H](CCCCN)NC(=O)[C@H](C)NC(=O)[C@H](C)NC(=O)[C@H](CCC(=O)O)NC(=O)[C@H](CCC(=O)O)NC(=O)[C@H](CCC(=O)O)NC(=O)[C@H](CC(C)C)NC(=O)[C@H](Cc1ccc(O)cc1)NC(=O)[C@H](CCCCN)NC(=O)[C@H](CO)NC(=O)[C@H](Cc1ccc(O)cc1)NC(=O)[C@H](CC(=O)O)NC(=O)[C@H](CO)NC(=O)[C@@H](NC(=O)[C@H](Cc1ccccc1)NC(=O)[C@@H](NC(=O)CNC(=O)[C@H](Cc1c[nH]cn1)NC(=O)C(C)(C)NC(=O)[C@@H](N)Cc1c[nH]cn1)[C@@H](C)O)[C@@H](C)O)C(=O)N[C@@H](C)C(=O)N[C@@H](Cc1c[nH]c2ccccc12)C(=O)N[C@@H](CC(C)C)C(=O)N[C@@H](CC(C)C)C(=O)N[C@@H](CCC(=O)O)C(=O)N[C@@H](CCCCN)C(=O)NC(C)(C)C(=O)N[C@@H](CCCCN)C(=O)N[C@@H](CCC(=O)O)C(=O)N[C@@H](Cc1ccccc1)C(=O)N[C@@H](CC(C)C)C(N)=O [Compound 55] (H-H[Aib]HGTFTSDYSKYLEEEAAKEFIAWLLEK[Aib]KEFL-NH2)?
A: EC50 [1, 3]: 0.08 nM; EC50 [1, 4]: 0.049 nM; 4 h Cholesterol Efflux Emax [2]: 96%

Q: CC[C@H](C)[C@H](NC(=O)[C@H](Cc1ccccc1)NC(=O)[C@H](CCC(=O)O)NC(=O)[C@H](CCCCN)NC(=O)[C@H](C)NC(=O)[C@H](C)NC(=O)[C@H](CCC(N)=O)NC(=O)[C@H](CCC(=O)O)NC(=O)[C@H](CCC(=O)O)NC(=O)[C@H](CC(C)C)NC(=O)[C@H](Cc1ccc(O)cc1)NC(=O)[C@H](CCCCN)NC(=O)[C@H](CO)NC(=O)[C@H](Cc1ccc(O)cc1)NC(=O)[C@H](CC(=O)O)NC(=O)[C@H](CO)NC(=O)[C@@H](NC(=O)[C@H](Cc1ccccc1)NC(=O)[C@@H](NC(=O)CNC(=O)[C@H](CCC(N)=O)NC(=O)[C@H](CO)NC(=O)[C@@H](N)Cc1c[nH]cn1)[C@@H](C)O)[C@@H](C)O)C(=O)N[C@@H](C)C(=O)N[C@@H](Cc1c[nH]c2ccccc12)C(=O)N[C@@H](CC(C)C)C(=O)N[C@@H](CC(C)C)C(=O)N[C@@H](CCC(=O)O)C(=O)N[C@@H](CCCCN)C(=O)NC(C)(C)C(=O)N[C@@H](CCCCN)C(=O)N[C@@H](CCC(=O)O)C(=O)N[C@@H](Cc1ccccc1)C(=O)N[C@@H](CC(C)C)C(N)=O [Compound 56] (H-HSQGTFTSDYSKYLEEQAAKEFIAWLLEK[Aib]KEFL-NH2; N-terminus assumed) was tested. Which EC50 ([1]; GLP1R CRE luc 0% HSA EC50 Mean Value, 0% HSA) did it give?
A: The EC50 was 0.118 nM.

Q: What about the EC50 [1, 4] of the same molecule?
A: Its EC50 is 0.061 nM.

Q: And the EC50 ([2]; read-out: 4 h Cholesterol Efflux EC50, ABCA1-mediated efflux (CPT-cAMP induced minus non-induced))?
A: The EC50 was 210 nM.

Q: Which results are given for CC[C@H](C)[C@H](NC(=O)[C@H](Cc1ccccc1)NC(=O)[C@H](CCC(=O)O)NC(=O)[C@H](CCCCN)NC(=O)[C@@H](NC(=O)[C@H](C)NC(=O)[C@H](CCC(=O)O)NC(=O)CNC(=O)[C@H](CCC(=O)O)NC(=O)[C@H](CC(C)C)NC(=O)[C@H](Cc1ccc(O)cc1)NC(=O)[C@H](CO)NC(=O)[C@H](CO)NC(=O)[C@@H](NC(=O)[C@H](CC(=O)O)NC(=O)[C@H](CO)NC(=O)[C@@H](NC(=O)[C@H](Cc1ccccc1)NC(=O)[C@@H](NC(=O)CNC(=O)[C@H](CCC(=O)O)NC(=O)C(C)(C)NC(=O)[C@@H](N)Cc1c[nH]cn1)[C@@H](C)O)[C@@H](C)O)C(C)C)C(C)C)C(=O)N[C@@H](C)C(=O)N[C@@H](Cc1c[nH]c2ccccc12)C(=O)N[C@@H](CC(C)C)C(=O)N[C@H](C(=O)N[C@@H](CCC(=O)O)C(=O)N[C@@H](CCCCN)C(=O)NC(C)(C)C(=O)N[C@@H](CCCCN)C(=O)N[C@@H](CCC(=O)O)C(N)=O)C(C)C [Compound 63, [Aib8,Glu23,Val25,Glu34,Lys35,Aib36,Lys37]-GLP-1-(7-37)-peptidyl-Glu amide] (H-H[Aib]EGTFTSDVSSYLEGEAVKEFIAWLVEK[Aib]KE-NH2)?
A: EC50 [1, 3]: 0.014 nM; EC50 [1, 4]: 0.005 nM; 4 h Cholesterol Efflux Emax [2]: 135%
